ChEMBL document CHEMBL5329217, “Hesperidin Methyl Chalcone reduces extracellular Aβ(25-35) peptide aggregation and fibrillation and also protects Neuro 2a cells from Aβ(25-35) induced neuronal dysfunction” (Bioorg Med Chem, 2023)
≈ marks a conversion by molar mass, not a printed value. Calls of active or inactive are those of the source. The calls are words filed in the database; no cut-off is given here.

Experiments:
N2a [1] = assay: (§1) Inhibition of Amyloid beta (25 to 35)-induced oxidative damage in mouse Neuro2a cells assessed as reduction in ROS production by measuring reduction in fluorescence intensity at 50 ug/ml pretreated for 2 hrs followed by amyloid beta (25 to 35) addition and measured after 24 hrs by DCFH-DA staining -based spectrofluorimetric assay; type: functional, cell-based; conditions: dose 50.0 µg/ml, time 26.0 hrs
N2a [2] = assay: Inhibition of Amyloid beta (25 to 35)-induced apoptosis in mouse Neuro2a cells assessed as Bax/Bcl2 ratio at 50 ug/ml pretreated for 2 hrs followed by amyloid beta (25 to 35) addition and measured after 24 hrs by Western blot analysis (reference value: 1.09 +/- 0.018); type: functional; conditions: dose 50 µg/ml; time 26 hrs
N2a [3] = assay: (§2) Inhibition of Amyloid beta (25 to 35)-induced macromolecular damage in mouse Neuro2a cells assessed as reduction in lipid peroxidation by measuring MDA content at 50 ug/ml pretreated for 2 hrs followed by amyloid beta (25 to 35) addition and measured after 24 hrs per mg protein (reference value: 106.4 +/-1.9 nmol); type: functional; conditions: dose 50 µg/ml; time 26 hrs
N2a [4] = assay: (§3) Neuroprotective activity against Amyloid beta (25 to 35)-induced toxicity in mouse Neuro2a cells assessed as non-apoptotic viable cells at 50 ug/ml pretreated for 2 hrs followed by amyloid beta (25 to 35) addition and measured after 24 hrs by AO/EtBr dual staining based fluorescence microscopy (reference value: 53.4 +/-3.88%); type: functional; conditions: dose 50 µg/ml; time 26 hrs
N2a [5] = assay: Inhibition of Amyloid beta (25 to 35)-induced mitochondrial membrane potential loss in mouse Neuro2a cells at 50 ug/ml pretreated for 2 hrs followed by amyloid beta (25 to 35) addition and measured after 24 hrs by rhodamine 123 staining based fluorescent spectrophotometry; type: functional, cell-based; conditions: dose 50.0 µg/ml, time 26.0 hrs
N2a [6] = assay: as §2, with “protein oxidation” for “lipid peroxidation”, “protein carbonyl” for “MDA”, “44.06 +/- 1.02 […])” for “106.4 +/-1.9 nmol)”; type: functional; conditions: dose 50 µg/ml; time 26 hrs
[7] = Toxicity in Artemia salina assessed as mortality rate at 50 ug/ml measured after 24 hrs relative to control; type: organism-based; conditions: in vivo, at 50 µg/mL
[8] = target: Amyloid-beta precursor protein (Homo sapiens) (UniProt P05067); assay: Inhibition of amyloid beta (25 to 35) (unknown origin) aggregation assessed as fluorescence intensity at 50 ug/ml incubated for 24 hrs by ThT-based fluorescence analysis (reference value: 22.15 +/-1.41 AU); conditions: dose 50.0 µg/ml
Sequence of Amyloid-beta precursor protein (Homo sapiens) (P05067 whole entry): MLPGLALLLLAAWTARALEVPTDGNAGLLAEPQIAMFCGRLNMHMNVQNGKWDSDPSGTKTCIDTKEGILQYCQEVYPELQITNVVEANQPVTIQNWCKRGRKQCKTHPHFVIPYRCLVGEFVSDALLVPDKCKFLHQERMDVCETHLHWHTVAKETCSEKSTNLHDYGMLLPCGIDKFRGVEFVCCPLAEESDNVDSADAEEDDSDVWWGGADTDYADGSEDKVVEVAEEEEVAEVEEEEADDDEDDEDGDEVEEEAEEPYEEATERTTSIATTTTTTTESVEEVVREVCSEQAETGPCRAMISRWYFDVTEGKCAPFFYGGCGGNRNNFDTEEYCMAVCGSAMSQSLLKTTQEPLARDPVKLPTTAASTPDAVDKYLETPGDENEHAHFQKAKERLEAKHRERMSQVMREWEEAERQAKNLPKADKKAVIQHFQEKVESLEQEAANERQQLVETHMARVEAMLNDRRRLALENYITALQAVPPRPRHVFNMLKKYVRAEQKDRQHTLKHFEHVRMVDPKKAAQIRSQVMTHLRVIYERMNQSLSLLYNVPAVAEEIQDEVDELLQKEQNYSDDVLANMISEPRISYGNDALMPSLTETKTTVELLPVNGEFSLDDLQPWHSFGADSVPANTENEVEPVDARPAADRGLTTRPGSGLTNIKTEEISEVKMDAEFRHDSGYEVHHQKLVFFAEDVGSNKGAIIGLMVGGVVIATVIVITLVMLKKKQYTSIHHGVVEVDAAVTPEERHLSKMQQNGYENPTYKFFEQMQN

Artemia salina [9] = assay: Toxicity in Artemia salina assessed as decrease in total length of the shrimp at 5 to 100 ug/ml measured after 24 hrs by phase contrast light microscopy; type: organism-based; conditions: in vivo, dose 5-100 µg/ml
N2a [10] = assay: Neuroprotective activity against Amyloid beta (25 to 35)-induced toxicity in mouse Neuro2a cells assessed as reduction in cell viability loss at 25 to 100 ug/ml pretreated for 2 hrs followed by amyloid beta (25 to 35) addition and measured after 24 hrs by MTT assay; type: functional, cell-based; conditions: dose 25-100 µg/ml, time 26.0 hrs
[11] = target: Amyloid-beta precursor protein (Homo sapiens) (UniProt P05067); assay: Inhibition of amyloid beta (25 to 35) (unknown origin) aggregation assessed as fluorescence intensity at 50 ug/ml incubated for 96 hrs by ThT-based fluorescence analysis (reference value: 31.63 +/-0.68 AU); conditions: dose 50.0 µg/ml
[12] = target: Amyloid-beta precursor protein (Homo sapiens) (UniProt P05067); assay: Disaggregation of amyloid beta (25 to 35) (unknown origin) mature fibrils at 50 ug/ml incubated for 1 to 9 days by ThT-based fluorescence microscopic analysis; conditions: dose 50.0 µg/ml, time 1-9 day
[13] = target: Cholinesterase (Mus musculus) (UniProt Q03311); assay: Inhibition of Amyloid beta (25 to 35)-induced BuChE activity in mouse Neuro2a cells assessed as BuChE activity at 50 ug/ml pretreated for 2 hrs followed by amyloid beta (25 to 35) addition and measured after 24 hrs per mg protein (reference value: 0.0007 +/-3.64 U); type: cell-based; conditions: dose 50.0 µg/ml, time 26.0 hrs
Sequence of Cholinesterase (Mus musculus) (Q03311 whole entry): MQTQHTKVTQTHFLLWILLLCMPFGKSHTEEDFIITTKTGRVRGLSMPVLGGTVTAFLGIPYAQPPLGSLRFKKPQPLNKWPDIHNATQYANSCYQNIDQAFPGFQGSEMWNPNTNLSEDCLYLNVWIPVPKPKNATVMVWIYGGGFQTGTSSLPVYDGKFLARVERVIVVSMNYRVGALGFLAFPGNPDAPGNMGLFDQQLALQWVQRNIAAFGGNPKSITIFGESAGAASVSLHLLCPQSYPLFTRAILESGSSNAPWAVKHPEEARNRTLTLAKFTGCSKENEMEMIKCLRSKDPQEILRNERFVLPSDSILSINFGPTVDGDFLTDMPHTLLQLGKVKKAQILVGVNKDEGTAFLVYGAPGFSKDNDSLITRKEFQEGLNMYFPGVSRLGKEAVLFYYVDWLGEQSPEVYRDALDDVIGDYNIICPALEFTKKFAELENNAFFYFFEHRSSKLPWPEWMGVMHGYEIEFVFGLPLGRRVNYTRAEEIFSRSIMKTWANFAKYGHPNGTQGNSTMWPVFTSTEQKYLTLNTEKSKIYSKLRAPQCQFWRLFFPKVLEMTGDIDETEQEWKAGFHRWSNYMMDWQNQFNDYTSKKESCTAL

[14] = target: Cholinesterase (Mus musculus) (UniProt Q03311); assay: Inhibition of Amyloid beta (25 to 35)-induced BuChE activity in mouse Neuro2a cells assessed as BuChE activity at 25 ug/ml pretreated for 2 hrs followed by amyloid beta (25 to 35) addition and measured after 24 hrs per mg protein (reference value: 0.0007 +/-3.64 U); type: cell-based; conditions: dose 25.0 µg/ml, time 26.0 hrs
[15] = target: Amyloid-beta precursor protein (Homo sapiens) (UniProt P05067); assay: Inhibition of amyloid beta (25 to 35) (unknown origin) aggregation assessed as fluorescence intensity at 50 ug/ml incubated for 9 days by ThT-based fluorescence microscopic analysis (reference value: 36.84 +/-0.94 AU); conditions: dose 50.0 µg/ml, time 9.0 day
N2a [16] = assay: (§4) Inhibition of Amyloid beta (25 to 35)-induced apoptosis in mouse Neuro2a cells assessed as reduction in caspase-3 activity by measuring PNA level at 25 ug/ml pretreated for 2 hrs followed by amyloid beta (25 to 35) addition and measured after 24 hrs per mg protein (reference value: 0.12 +/-0.004 mM/min); type: functional; conditions: dose 25 µg/ml; time 26 hrs
N2a [17] = assay: as §1, with “intensity at 25 to 50 ug/ml” for “intensity at 50 ug/ml”; type: functional, cell-based; conditions: dose 25-50 µg/ml, time 26.0 hrs
[18] = Cytotoxicity against mouse Neuro2a cells assessed as cell viability at 100 ug/ml incubated for 24 hrs by MTT assay; type: toxicity, cell-based; conditions: Neuro2a (N2a) cells, at 100 µg/mL, read-out: Activity
[19] = Toxicity in Artemia salina assessed as mortality rate at 75 ug/ml measured after 24 hrs relative to control; type: organism-based; conditions: in vivo, at 75 µg/mL
[20] = Antioxidant activity assessed as free radical scavenging activity at 100 ug/ml by DPPH assay relative to control; type: functional; conditions: dose 100.0 µg/ml
[21] = Toxicity in Artemia salina assessed as lethal dose; type: organism-based; conditions: in vivo
N2a [22] = assay: Cytotoxicity against mouse Neuro2a cells upto 200 ug/ml incubated for 24 hrs by MTT assay; type: toxicity, cell-based; conditions: dose < 200 µg/ml
[23] = target: T1, Acetylcholinesterase (Mus musculus) (UniProt P21836); assay: Inhibition of Amyloid beta (25 to 35)-induced AChE activity in mouse Neuro2a cells assessed as AChE activity at 25 ug/ml pretreated for 2 hrs followed by amyloid beta (25 to 35) addition and measured after 24 hrs per mg protein (reference value: 0.0012 +/-4.18 U); type: cell-based; conditions: dose 25.0 µg/ml, time 26.0 hrs
T1 sequence (whole entry): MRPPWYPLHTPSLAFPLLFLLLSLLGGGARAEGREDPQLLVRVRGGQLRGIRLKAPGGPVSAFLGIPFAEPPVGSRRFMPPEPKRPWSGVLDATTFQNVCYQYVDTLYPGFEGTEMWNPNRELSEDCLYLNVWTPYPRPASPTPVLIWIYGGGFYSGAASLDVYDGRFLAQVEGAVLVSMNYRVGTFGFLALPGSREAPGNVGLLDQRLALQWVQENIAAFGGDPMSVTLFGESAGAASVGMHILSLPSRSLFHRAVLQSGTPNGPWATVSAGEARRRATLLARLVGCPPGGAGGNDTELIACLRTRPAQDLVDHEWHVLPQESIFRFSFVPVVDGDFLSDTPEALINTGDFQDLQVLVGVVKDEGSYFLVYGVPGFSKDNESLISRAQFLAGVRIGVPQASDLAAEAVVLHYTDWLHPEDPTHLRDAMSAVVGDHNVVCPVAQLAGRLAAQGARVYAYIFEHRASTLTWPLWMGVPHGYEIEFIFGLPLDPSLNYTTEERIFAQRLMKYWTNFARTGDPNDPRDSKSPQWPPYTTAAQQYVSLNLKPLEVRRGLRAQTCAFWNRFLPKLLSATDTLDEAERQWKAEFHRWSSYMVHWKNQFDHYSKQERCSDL

[24] = Toxicity in Artemia salina assessed as mortality rate at 100 ug/ml measured after 24 hrs relative to control; type: organism-based; conditions: in vivo, at 100 µg/mL
N2a [25] = assay: Inhibition of Amyloid beta (25 to 35)-induced apoptosis in mouse Neuro2a cells assessed as increase in BCl2 expression at 50 ug/ml pretreated for 2 hrs followed by amyloid beta (25 to 35) addition and measured after 24 hrs by Western blot analysis; type: functional, cell-based; conditions: dose 50.0 µg/ml, time 26.0 hrs
[26] = Toxicity in Artemia salina assessed as mortality rate at 25 ug/ml measured after 24 hrs relative to control; type: organism-based; conditions: in vivo, at 25 µg/mL
N2a [27] = assay: Inhibition of Amyloid beta (25 to 35)-induced mitochondrial membrane potential loss in mouse Neuro2a cells at 25 to 50 ug/ml pretreated for 2 hrs followed by amyloid beta (25 to 35) addition and measured after 24 hrs by rhodamine 123 staining based fluorescent spectrophotometry; type: functional, cell-based; conditions: dose 25-50 µg/ml, time 26.0 hrs
Artemia salina [28] = assay: Toxicity in Artemia salina assessed as induction of morphological changes by measuring improper development at 5 to 100 ug/ml treated for 24 hrs by phase contrast light microscopy; type: organism-based; conditions: in vivo, dose 5-100 µg/ml
[29] = target: T1, Acetylcholinesterase (Mus musculus); assay: Inhibition of Amyloid beta (25 to 35)-induced AChE activity in mouse Neuro2a cells assessed as AChE activity at 50 ug/ml pretreated for 2 hrs followed by amyloid beta (25 to 35) addition and measured after 24 hrs per mg protein (reference value: 0.0012 +/-4.18 U); type: cell-based; conditions: dose 50.0 µg/ml, time 26.0 hrs
Artemia salina [30] = assay: Toxicity in Artemia salina assessed as induction of morphological changes by measuring improper antennae swimming setae at 5 to 100 ug/ml treated for 24 hrs by phase contrast light microscopy; type: organism-based; conditions: in vivo, dose 5-100 µg/ml
[31] = target: Acetylcholinesterase (Electrophorus electricus) (UniProt O42275); assay: Inhibition of electric eel AchE using acetylthiocholine iodide as substrate at 20 to 100 ug/ml by Ellman's method relative to control; conditions: dose 20-100 µg/ml
Sequence of Acetylcholinesterase (Electrophorus electricus) (O42275 24-633 limits assumed): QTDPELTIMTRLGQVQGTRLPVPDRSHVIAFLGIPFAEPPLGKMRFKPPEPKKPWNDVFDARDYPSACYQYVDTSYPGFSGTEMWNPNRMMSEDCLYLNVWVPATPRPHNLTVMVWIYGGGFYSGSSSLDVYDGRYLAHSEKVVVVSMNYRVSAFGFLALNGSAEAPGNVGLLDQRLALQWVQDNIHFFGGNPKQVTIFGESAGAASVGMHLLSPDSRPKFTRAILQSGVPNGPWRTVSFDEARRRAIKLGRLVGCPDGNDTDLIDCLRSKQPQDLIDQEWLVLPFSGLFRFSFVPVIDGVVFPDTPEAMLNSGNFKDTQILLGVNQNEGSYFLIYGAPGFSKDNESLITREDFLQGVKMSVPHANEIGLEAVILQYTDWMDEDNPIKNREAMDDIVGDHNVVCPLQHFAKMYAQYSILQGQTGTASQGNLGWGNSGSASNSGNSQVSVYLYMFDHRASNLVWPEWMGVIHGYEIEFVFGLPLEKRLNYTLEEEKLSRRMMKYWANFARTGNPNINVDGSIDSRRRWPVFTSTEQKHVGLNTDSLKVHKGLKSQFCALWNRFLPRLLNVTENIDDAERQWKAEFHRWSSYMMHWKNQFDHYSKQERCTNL

N2a [32] = assay: as §2, with “protein oxidation” for “lipid peroxidation”, “protein carbonyl” for “MDA”, “25” for “50”, “44.06 +/- 1.02” for “106.4 +/-1.9”; type: functional; conditions: dose 25 µg/ml; time 26 hrs
N2a [33] = assay: Inhibition of Amyloid beta (25 to 35)-induced apoptosis in mouse Neuro2a cells assessed as decrease in Bax expression at 50 ug/ml pretreated for 2 hrs followed by amyloid beta (25 to 35) addition and measured after 24 hrs by Western blot analysis; type: functional, cell-based; conditions: dose 50.0 µg/ml, time 26.0 hrs
[34] = target: Acetylcholinesterase (Electrophorus electricus) (UniProt O42275); assay: Inhibition of electric eel AchE using acetylthiocholine iodide as substrate at 100 ug/ml by Ellman's method relative to control; conditions: dose 100.0 µg/ml
Artemia salina [35] = assay: Toxicity in Artemia salina assessed as induction of morphological changes by measuring variation in the mandibles at 5 to 100 ug/ml treated for 24 hrs by phase contrast light microscopy; type: organism-based; conditions: in vivo, dose 5-100 µg/ml
N2a [36] = assay: as §4, with “at 50” for “at 25”; type: functional; conditions: dose 50 µg/ml; time 26 hrs
N2a [37] = assay: as §2, with “25” for “50”; type: functional; conditions: dose 25 µg/ml; time 26 hrs
[38] = target: Amyloid-beta precursor protein (Homo sapiens) (UniProt P05067); assay: Inhibition of amyloid beta (25 to 35) (unknown origin) aggregation assessed as fluorescence intensity at 50 ug/ml incubated for 48 hrs by ThT-based fluorescence analysis (reference value: 26.85 +/-0.78 AU); conditions: dose 50.0 µg/ml
N2a [39] = assay: as §3, with “25” for “50”; type: functional; conditions: dose 25 µg/ml; time 26 hrs
[40] = Toxicity in Artemia salina assessed as mortality rate at 5 ug/ml measured after 24 hrs relative to control; type: organism-based; conditions: in vivo, at 5 µg/mL

COc1cc2c(cc1OC)C(=O)C(CC1CCN(Cc3ccccc3)CC1)C2 (centres undefined) [DONEPEZIL]
inhibition (N2a [1]): Active | Ratio (N2a [2]): 0.57 | Activity (N2a [3]): 56.6 nmol | Activity (N2a [4]): 79% | inhibition (N2a [5]): Active | Activity (N2a [6]): 25.1 nmol/mg

COc1ccc(/C=C/C(=O)c2c(O)cc(O[C@@H]3O[C@H](CO[C@@H]4O[C@@H](C)[C@H](O)[C@@H](O)[C@H]4O)[C@@H](O)[C@H](O)[C@H]3O)cc2OC)cc1O
mortality at 24 h, 50 ug/ml [7]: 3.33% | Flu intensity [8]: 19.8 a.u. | Activity (Artemia salina [9]): Toxic | Activity (N2a [10]): Active | Flu intensity [11]: 10 a.u. | Ratio (N2a [2]): 0.51 | Activity [12]: Active | Activity (N2a [3]): 64.63 nmol | Activity [13]: 0 U | Activity [14]: 0 U | Flu intensity [15]: 11.8 a.u. | Activity (N2a [16]): 0.07 mM/min | inhibition (N2a [17]): Active | viability at 24 h, 100 ug/ml [18]: 99.6% | mortality at 24 h, 75 ug/ml [19]: 36.6% | inhibition [20]: 68.4% | Activity (N2a [4]): 81.66% | LC50 [21]: 100 µg/mL (≈ 160 µM) | Activity (N2a [22]): Non-Toxic | Activity [23]: 0 U | mortality at 24 h, 100 ug/ml [24]: 53.3% | inhibition (N2a [25]): Active | mortality at 24 h, 25 ug/ml [26]: 0% | inhibition (N2a [27]): Active | Activity (Artemia salina [28]): Toxic | Activity [29]: 0 U | Activity (N2a [6]): 27.9 nmol/mg | Activity (Artemia salina [30]): Toxic | inhibition [31]: > 80% | Activity (N2a [32]): 33.9 nmol/mg | inhibition (N2a [33]): Active | inhibition [34]: 93% | Activity (Artemia salina [35]): Toxic | Activity (N2a [36]): 0.03 mM/min | Activity (N2a [37]): 77.84 nmol | Flu intensity [38]: 6.45 a.u. | Activity (N2a [39]): 70.33% | mortality at 24 h, 5 ug/ml [40]: 0%
